# Results published in patent publication US20230167458A1, “FORSKOLIN-INDUCIBLE PROMOTERS AND HYPOXIA-INDUCIBLE PROMOTERS” (ASKLEPIOS BIOPHARMACEUTICAL, INC., priority 2020, published 2023).
# B1: FORCYB1: synthetic forskolin-inducible promoter, SEQ ID NO: 45; 5× cAMPRE and 4× AP1 TFBS and YB-TATA (nucleic acid)
# DNA: TGACGTCACGATTACCATTGACGTCACGATTACCATTGACGTCACGATTACCATTGACGTCACGATTACCATTGACGTCAGCGATTAAGATGACTCAGCGATTAAGATGACTCAGCGATTAAGATGACTCAGCGATTAAGATGACTCAGCGATTAATCCATATGCTCTAGAGGGTATATAATGGGGGCCACTAGTCTACTACCAGAAAGCTTGGTACCGAGCTCGGATCCAGCCACC
# modifications: synthetic forskolin-inducible promoter
# Legend:
# CHO-GS-KSV1 cell line = assay: SEAP expression in stably transfected CHO-GS-KSV1, forskolin or NKH477 induction; format: cell-based, chinese hamster; settings: for optimal inducer concentration to induce expression from RTV-019: stably transfected CHO-GS-KSV1/CHO-K1SV, SEAP after 24 hours, 2, 5, 9, 18 or 32 pM tested
# Experimental: The forskolin-inducible promoters were then tested in a stably transfected CHO-GS-KSV1 cell line.
# • CD-CHO media (Life technologies, CAT #10743029) • Corning 125 mL Polycarbonate Erlenmeyer Flask with Vent Cap (CAT #734-1885). • Gene Pulser® Electroporation Cuvettes, 0.4 cm gap (BioRad, CAT #165-2088) • Gene Pulser Xcell Total System (BioRad, CAT, #1652660) • GS-vector DNA ([…] in 100 μL TE buffer) linearised with Sca1 • Suspension cultures of CHOK1SV GS-KO host cells.
# Cell suspensions of 6×10^5 cells per mL were incubated on an orbital shaker set at 8% CO2, 20% O2, 37° C., 85% relative humidity and 140 rpm overnight. 2.86×10^7 cells were centrifuged at 200 g for 3 minutes. Media was then aspirated and cell pellet resuspended in 2 mL fresh CD-CHO media to obtain a concentration of 1.43×10^7 cells per mL. 700 μL of cell suspension was added to each of two electroporation cuvettes each containing […] of linearised DNA in 100 μL of sterile TE buffer (Thermofisher, 12090015). Each cuvette was electroporated, delivering a single pulse of 300V, […] with resistance to infinity. Immediately after delivery of pulse electroplated cells were transferred to Erlenmeyer 125 mL flask containing 20 mL of CD-CHO media pre-warmed to 37° C. Electroporated cells from two cuvettes are combined into a single 125 mL flask to generate one pool of cells. Cells are cultured on an orbital shaker set at 8% CO2, 20% O2, 37° C., 85% relative humidity and 140 rpm. Cells are transferred to fresh CD-CHO media 24 hours after transfection and cell cultures monitored and given fresh CD-CHO media every 2-4 days. Usually after about 10-14 days cell numbers will be high enough to start passaging.
# The transfected DNA was the pXC-17.4 expression vector (Lonza Biologics plc) where one of the promoter constructs (or a control promoter (CMV-IE) have been cloned upstream of the secreted alkaline phosphatase (SEAP) gene, which had been cloned into the multiple cloning site within the vector expression cassette. Promoters were closed into the pXC-17.4 vector using Gibson assembly. The pXC-17.4 expression vector is designed for making stable cell lines in the CHO-GSK1SV cell line as it contains the […] gene which has been knocked out of the cell line. Therefore, selection of cells in glutamine drop-out medium will select for cells that have stably integrated the plasmid.
# The responsiveness of the RTV-019 promoter to different concentrations of forskolin and […] was tested in the stably transfected CHO-GS-KSV1 cell line. To this end, the stably transfected CHO-GS cells were seeded at 500,000 cells/ml and allowed to grow for 24 hrs. At this point the cells were induced by addition of the respective concentrations of forskolin and NKH477 and SEAP expression was measured as described below after 24 hours.
# The promoter activity and inducibility of FMP-02, FORCYB-001, RTV-017, FORCSV-10, FOR-CMC-009, FLP-01 and RTV-019 were also tested in the stably transfected CHO-GS-KSV1 cell line. To this end, the stably transfected CHO-GS cells were seeded at 500,000 cells/ml and allowed to grow for 24 hrs. At this point the cells were exposed to […] forskolin or […] NKH477 for 24 hours. After this point, the SEAP activity in the medium was assessed as described below.
# SEAP Reporter Gene Assay, chemiluminescent (Roche, CAT #11 779 842 001) was used to measure SEAP activity as per the manufacturer's protocol. All reagents and samples were fully pre-equilibrated at room temperature. Culture supernatant was collected from the stably transfected CHO-GS at the specific time points (0 h and 24 h). The supernatant was diluted 1:4 in dilution buffer and heat treated at 65° C. for 30 minutes. The heat-treated sample was then centrifuged for 30 s at maximum speed. 50 μl of the heat-treated sample was then added to 5 μl of inactivation buffer and incubated for 5 min at room temperature. 50 μl of substrate reagent was then added and incubated for 10 min at room temperature. […]
# [1] = test system: Huh7 human liver cell line; assay: Luciferase expression from promoters in pAAV vector (with ITRs) in Huh7, forskolin or NKH477 induction; parameters: fold induction with forskolin: dose or concentration left out as unconfirmed
# Experimental: The forskolin-inducible promoters RTV-017, RTV-019 and FORCYB1 were then used to drive expression of luciferase in a pAAV vector in the Huh7 human liver cell line. […] This experiment was performed to investigate the effect of the Inverted Terminal Repeats (ITRs) on the activity of the promoters.
# The cells were seeded, transfected and induced as described above. Luciferase expression was measured as described above. In this experiment, the cells were induced by using 20 pM forskolin or 7.2 pM of the water soluble derivative NKH477.
Molecule,optimal inducer concentration to induce expression from RTV-019 (CHO-GS-KSV1 cell line),optimal inducer concentration to induce expression from RTV-019 (CHO-GS-KSV1 cell line; listed as forskolin) [µM],"potency as inducer of the promoters compared with forskolin (CHO-GS-KSV1 cell line; stable CHO-GS-KSV1, 7.2 µM NKH477 vs 20 µM forskolin)",optimal inducer concentration to induce expression from RTV-019 (CHO-GS-KSV1 cell line; listed as NKH 477),fold induction with forskolin ([1]; Huh7) [fold],luciferase activity without induction (background) ([1]; Huh7),"fold induction with NKH477 ([1]; Huh7, 7.2 pM NKH477) [fold]","luciferase activity following induction ([1]; Huh7, or 7.2 pM NKH477)"
C=C[C@@]1(C)CC(=O)[C@]2(O)[C@@]3(C)[C@@H](O)CCC(C)(C)[C@@H]3[C@H](O)[C@H](OC(C)=O)[C@@]2(C)O1 [Forskolin],about 18 pM,18,–,–,–,–,–,–
"C=C[C@@]1(C)CC(=O)[C@]2(O)[C@@]3(C)[C@@H](O)CCC(C)(C)[C@@H]3[C@H](OC(=O)CCN(C)C)[C@H](OC(C)=O)[C@@]2(C)O1.Cl [NKH477, NKH 477]",8 µM,–,slightly more potent inducer,about 8 pM,–,–,–,–
B1,–,–,–,–,65,low background activity,30,high activity
